Test results reported in patent publication US5026836A, “6-sulfenamide, 6-sulfinamide and 6-sulfonamide purines, purine nucleosides, purine nucleotides, pharmaceutical compositions, and processes of making” (priority 1988, dated 1991).
Values joined by “and” are separate entries in the source; they are usually repeats but may differ in a detail not shown here. Equal entries are not always repeated.

Tests used:
Colon 26 Adenocarcinoma = experiment: Survival of CDF1 mice bearing Colon 26 Adenocarcinoma; format: in vivo, mouse; details: for T/C (%): ≥150% significant
Experimental: In Example Q Compound 19 was tested against Colon 26 Adenocarcinoma.

L1210 cells = L1210 cells surviving treatment (% of original inoculum); format: in vivo, mouse
Excerpt: Values below 25% are considered capable of producing effective therapy, those below 10% are considered good and those below 5% are considered very good. This expresses the percent of the cells which survived treatment based upon the original cells in the inoculum. Those tests expressed as increases in life span (% ILS) indicate the increased life span of the drug treated group compared to a control group.
As an indicator of reproducible activity, compounds of the invention and other known cancer chemotherapeutic agents were screened against L1210 lymphoid leukemia in vivo utilizing the mouse as a test species. Normal NCI protocols for this test require 10^5 seed cells of the L1210 cell line. However for the purposes of tests with the L1210 cell line in testing the compounds of the invention for antitumor activity, a log greater, i.e. 10^6 cells were utilized.
Tables 2-a and 2-b illustrate a dose response for Compound 19 against L1210 inoculated mice expressed as both increased life span compared to control and as the number of cells of the original inoculum surviving drug treatment. As is evident from the various regimens of drug treatment shown in Tables 2-a and 2-b, effective therapeutic effects are noted and a dose response to Compound 19 is evident. […] Cytosine Arabinoside must be given every three hours. Test results are given utilizing standard protocols based on mean survival time and are expressed as T/C percentages (treated animals/control animals).

[1] = Toxicity / maximum tolerated dosage in mice; format: in vivo; details: ip 104 mg/kg/inj, bid days 1,4,7; 11 CDF1 mice with Colon 26
[2] = tested on: reticulum cell sarcoma M5076; experiment: Reticulum cell sarcoma M5076 tumor weight in C57B1/6 mice; format: in vivo, mouse; details: qd days 1,3,5,7,9,11; for Tumor wt, staging day (mean ± 1SD): before treatment (day 15 post inoculation); for Tumor wt, evaluation day (mean ± 1SD): day 12 of treatment
Experimental: (§1) In this example Compound 19 was tested against reticulum cell sarcoma M5076. For this and certain other tests below, test results are shown as δT/δC. Utilizing this protocol the difference in tumor weight before treatment and after treatment of the treated animals compared to the control animals is determined.

L1210/ARA-C cells = experiment: Cytosine Arabinoside resistant L1210 cells surviving treatment; format: in vivo, mouse
[3] = tested on: human mammary carcinoma MX-1; experiment: Human mammary carcinoma MX-1 tumor weight in nu/nu mice; format: in vivo; details: qd days 1,3,5,7,9,11; for Tumor wt, staging day (mean ± 1SD): before treatment (day 17 post implant); for Tumor wt, evaluation day (mean ± 1SD): day 15 of treatment; for δT/δC: ≤20% moderate activity
Experimental: as §1
In Example P Compound 19 was tested against human mammary carcinoma MX-1.

[4] = ip 62 mg/kg/inj, bid days 1,4,7
[5] = ip 104 mg/kg/inj, qd days 1,3,5,7
[6] = ip 104 mg/kg/inj, qd days 1,4,7
[7] = ip 173 mg/kg/inj, qd days 1,3,5,7
[8] = ip 173 mg/kg/inj, qd days 1,4,7

## Nc1nc([S+](N)[O-])c2ncn([C@@H]3O[C@H](CO)[C@@H](O)[C@H]3O)c2n1 (mixture of isomers) [Compound 19, 2-amino-9-β-D-ribofuranosyl-9H-purine-6-sulfinamide]
Colon 26 Adenocarcinoma; [4]
  Median survival time: 45 days post inoculation
  T/C (%): 196%
Colon 26 Adenocarcinoma; ip 62 mg/kg/inj, qd days 1-7
  Median survival time: 40 days post inoculation
  T/C (%): 174%
Colon 26 Adenocarcinoma; ip 104 mg/kg/inj, bid days 1,4,7, group included 6 toxic deaths
  Median survival time: 17 days post inoculation
Colon 26 Adenocarcinoma; [5]
  Median survival time: 34 days post inoculation
  T/C (%): 148%
Colon 26 Adenocarcinoma; [6]
  Median survival time: 31 days post inoculation
  T/C (%): 135%
Colon 26 Adenocarcinoma; ip 104 mg/kg/inj, qd days 1-7
  Median survival time: 38 days post inoculation
  T/C (%): 165%
Colon 26 Adenocarcinoma; [7]
  Median survival time: 42 days post inoculation
  T/C (%): 183%
Colon 26 Adenocarcinoma; [8]
  Median survival time: 31 days post inoculation
  T/C (%): 135%
L1210 cells; 22 mg/kg, bid days 1,3,5,7
  L1210 cells surviving day 7 treatment (% of original inoculum): 594%
L1210 cells; 22 mg/kg, bid days 1,4,7
  L1210 cells surviving day 7 treatment (% of original inoculum): 9211%
L1210 cells; 22 mg/kg, bid days 1-7
  L1210 cells surviving day 7 treatment (% of original inoculum): 343%
L1210 cells; 37 mg/kg, bid days 1,3,5,7
  L1210 cells surviving day 7 treatment (% of original inoculum): 17%
L1210 cells; 37 mg/kg, bid days 1,4,7
  L1210 cells surviving day 7 treatment (% of original inoculum): 87%
L1210 cells; 37 mg/kg, bid days 1-7
  L1210 cells surviving day 7 treatment (% of original inoculum): 22%
L1210 cells; 37 mg/kg, qd days 1,3,5,7
  L1210 cells surviving day 7 treatment (% of original inoculum): 3077%
L1210 cells; 37 mg/kg, qd days 1,4,7
  L1210 cells surviving day 7 treatment (% of original inoculum): 15936%
L1210 cells; 37 mg/kg, qd days 1-7
  L1210 cells surviving day 7 treatment (% of original inoculum): 115%
L1210 cells; 62 mg/kg, bid days 1,3,5,7
  L1210 cells surviving day 7 treatment (% of original inoculum): 0.3%
L1210 cells; 62 mg/kg, bid days 1,4,7
  L1210 cells surviving day 7 treatment (% of original inoculum): 5.6%
L1210 cells; 62 mg/kg, qd days 1,3,5,7
  L1210 cells surviving day 7 treatment (% of original inoculum): 50%
L1210 cells; 62 mg/kg, qd days 1,4,7
  L1210 cells surviving day 7 treatment (% of original inoculum): 594%
L1210 cells; 62 mg/kg, qd days 1-7
  L1210 cells surviving treatment (% of original inoculum): 13%
L1210 cells; 104 mg/kg, qd days 1,3,5,7
  L1210 cells surviving treatment (% of original inoculum): 17%
L1210 cells; 104 mg/kg, qd days 1,4,7
  L1210 cells surviving treatment (% of original inoculum): 29%
L1210 cells; 173 mg/kg, qd days 1,3,5,7
  L1210 cells surviving treatment (% of original inoculum): 0.2%
L1210 cells; 173 mg/kg, qd days 1,4,7
  L1210 cells surviving treatment (% of original inoculum): 1.1%
L1210 cells; ip 37 mg/kg/inj, bid days 1,3,5,7
  RCP (Residual Cell Population): .32
L1210 cells; ip 62 mg/kg, bid day 1
  L1210 cells surviving (% of day zero inoculum): 0.8%
L1210 cells; ip 62 mg/kg, qd day 1, 62 mg/kg
  L1210 cells surviving (% of day zero inoculum): 0.8% and 8.5%
L1210 cells; ip 62 mg/kg, tid day 1
  L1210 cells surviving (% of day zero inoculum): 0.4%
L1210 cells; [4]
  RCP (Residual Cell Population): .14
L1210 cells; ip 104 mg/kg, qd day 1
  L1210 cells surviving (% of day zero inoculum): 5.4%
L1210 cells; ip 104 mg/kg/day, qd days 1-7, 1 long term survivor not included
  L1210 cells surviving treatment (% of day zero inoculum): 0.04%
L1210 cells; ip 173 mg/kg, qd day 1
  L1210 cells surviving (% of day zero inoculum): 1.4%
L1210 cells; oral 37 mg/kg/inj, bid days 1,3,5,7
  RCP (Residual Cell Population): 3.73
L1210 cells; oral 62 mg/kg/inj, bid days 1,4,7
  RCP (Residual Cell Population): 8.48
[1]
  toxic deaths: 6
[2]; ip 110.8 mg/kg/inj group
  Tumor wt, staging day (mean ± 1SD): 396 ± 116 mg
[2]; ip 138.4 mg/kg/inj group
  Tumor wt, staging day (mean ± 1SD): 355 ± 79 mg
[2]; ip 173.0 mg/kg/inj group
  Tumor wt, staging day (mean ± 1SD): 354 ± 81 mg
[2]; ip 110.8 mg/kg/inj
  Tumor wt, evaluation day (mean ± 1SD): 1121 ± 343 mg
  δT/δC: 65.8
[2]; ip 138.4 mg/kg/inj
  Tumor wt, evaluation day (mean ± 1SD): 855 ± 325 mg
  δT/δC: 45.4
[2]; ip 173.0 mg/kg/inj
  Tumor wt, evaluation day (mean ± 1SD): 409 ± 385 mg
  δT/δC: 5.0
L1210/ARA-C cells; [6]
  L1210/ARA-C cells surviving (% of day zero inoculum): 1.7%
L1210/ARA-C cells; ip 173 mg/kg/inj, qd day 1
  L1210/ARA-C cells surviving (% of day zero inoculum): 0.02%
L1210/ARA-C cells; [8]
  L1210/ARA-C cells surviving (% of day zero inoculum): 0.6%
L1210/ARA-C cells; mouse, in vivo
  efficacy against ARA-C resistant line vs parent: greater efficacy against this resistant cell line than it did to the parent non-drug resistant L1210 cells
[3]; ip 110.8 mg/kg/inj group
  Tumor wt, staging day (mean ± 1SD): 321 ± 132 mg
[3]; ip 138.4 mg/kg/inj group
  Tumor wt, staging day (mean ± 1SD): 330 ± 118 mg
[3]; ip 173.0 mg/kg/inj group
  Tumor wt, staging day (mean ± 1SD): 323 ± 127 mg
[3]; ip 110.8 mg/kg/inj
  Tumor wt, evaluation day (mean ± 1SD): 943 ± 297 mg
  δT/δC: 66.1%
[3]; ip 138.4 mg/kg/inj
  Tumor wt, evaluation day (mean ± 1SD): 884 ± 415 mg
  δT/δC: 58.9%
[3]; ip 173.0 mg/kg/inj
  Tumor wt, evaluation day (mean ± 1SD): 489 ± 104 mg
  δT/δC: 17.6%
